“Also recorded” adds a separate entry of the source.
Legend:
[1] = tested on: CHIKV-GFP reporter virus; experiment: microbe, parasite or virus in culture; type: cell-based, Chikungunya virus (CHIKV) strain 181/25; conditions: for IC50: Chikungunya virus, HeLa, read-out: IC50 against CHIKV-GFP reporter virus
[2] = tested on: VEEV TC-83; type: cell-based, Venezuelan Equine Encephalitis Virus
[3] = tested on: RVFV MP12; type: cell-based, Rift Valley fever virus
[4] = tested on: Zika virus (ZIKV); type: cell-based
[5] = tested on: CHIKV 181/25; type: cell-based, Chikungunya virus
[6] = tested on: CHIKV 181/25; type: cell-based, Chikungunya virus; remark: listed apart in the source
[7] = tested on: HeLa cells; conditions: 30 μM, 48 hours
[8] = tested on: A549 cells; conditions: 30 μM, 48 hours

For `O=C(/C=C/c1ccc2c(c1)OCO2)N1CCN(Cc2nc(-c3ccco3)cs2)CC1` [Compound I, (2E)-3-(2H-1,3-benzodioxol-5-yl)-1-(4-{[4-(furan-2-yl)-1,3-thiazol-2-yl]methyl}piperazin-1-yl)prop-2-en-1-one], the “CHIKV-GFP fluorescence, relative percent infection” value [1] was “more effective in A549 cells”, the IC50 [1] was 10.9 µM and the “VEEV TC-83 infection” value [2] was “the only compound reducing VEEV TC-83 infection”. The “viral titer of RVFV” value [3] was “minimal effectiveness”, the ZIKV viral titer [4] was “no obvious reduction” and the “CHIKV 181/25 viral titer by time of compound addition” value (from here on “CHIKV 181/25 viral titer by time”) [5] was “relatively similar reduction of viral titer across all timepoints”.

In the case of `Sc1nnc2c(n1)[nH]c1ccccc12` [Compound III, 5H-[1,2,4]Triazino[5,6-b]indole-3-thiol], the IC50 [1] is reported as 2.82 µM, the “infection of CHIKV 181/25” value [6] is reported as “didn't reduce infection” and the “percentage of VEEV TC-83 infected cells” value [2] is reported as “reduced the percentage of VEEV TC-83 infected cells”. For the same compound, the ZIKV viral titer [4] was “some minimal effect” and the “CHIKV 181/25 viral titer by time” value [5] was “relatively similar reduction of viral titer across all timepoints”.

For `Cn1c(=N)sc2c3ccccc3ccc21` [Compound IV, 3-methyl-2H,b3H-naphtho[2,1-d][1,3]thiazol-2-imine], the “CHIKV-GFP fluorescence, relative percent infection” value [1] was “greater inhibition of virus infection in HeLa cells”, the IC50 [1] was 2.59 µM and the “percentage of VEEV TC-83 infected cells” value [2] was “reduced the percentage of VEEV TC-83 infected cells”. For the same compound, the “viral titer of RVFV” value [3] was “significantly reduced titer”, the ZIKV viral titer [4] was “strong reduction” and the “CHIKV 181/25 viral titer by time” value [5] was “strongest reduction with pre-treatment, with lessened efficacy at each consecutive timepoint; also recorded: consecutively reduced levels of efficacy at later timepoints”. The “reduction of HeLa cell viability” value [7] was 23.8% and the “reduction of A549 cell viability” value [8] was 29%.

From patent US11564919B1, “Small molecule inhibitors for treatment of alpha viruses” (priority 2021, dated 2023)
